Test results as given in US6515000B2, “Fungicidal mixtures based on amide compounds” (BASF Aktiengesellschaft, priority 2000, dated 2003).

How the values were obtained:
[1] = test system: mildew of wheat (Blumeria graminis forma specialis tritici); assay: Action against mildew of wheat (protective spray, wheat seedlings cv. Kanzler); assay type: in vivo; conditions: individual active ingredient, 7 days after inoculation
Description: (§1) The active compounds, separately or together, are formulated as a 10% emulsion in a mixture of 70% by weight of cyclohexanone, 20% by weight of Nekanil® LN (Lutensol® AP6, wetting agent having emulsifying and dispersing action based on ethoxylated alkylphenols) and 10% by weight of Emulphor® EL (Emulan® EL, emulsifier based on ethoxylated fatty alcohols) and diluted with water to the desired concentration.
(§2) Evaluation is carried out by determining the infected leaf areas in percent. These percentages are converted into efficacies. The efficacy (W) is calculated as follows using Abbot's formula: […]
α corresponds to the fungal infection of the treated plants in % and β corresponds to the fungal infection of the untreated (control) plants in % An efficacy of 0 means that the infection level of the treated plants corresponds to that of the untreated control plants; an efficacy of 100 means that the treated plants were not infected.
The expected efficacies of the mixtures of the active compounds were determined using Colby's formula [R. S. Colby, Weeds 15, 20-22 (1967)] and compared with the observed efficacies.
Colby's formula: E×x+y−x·y/100
E expected efficacy, expressed in % of the untreated control, when using the mixture of the active compounds A and B at the concentrations a and b x efficacy, expressed in % of the untreated control, when using active compound A at the concentration a y efficacy, expressed in % of the untreated control, when using active compound B at the concentration b.
Leaves of wheat seedlings of the cultivar “Kanzler”, grown in pots, were sprayed to run-off point with an aqueous formulation of active ingredient which had been prepared using a stock solution comprising 10% of active ingredient, 85% of cyclohexanone and 5% of emulsifier, and 24 hours after the spray coating had dried on, the leaves were dusted with spores of mildew of wheat (Blumeria graminis forma specialis tritici). […] After 7 days, the extent of the development of the mildew was determined visually in % infection of the entire leaf surface. […]

[2] = test system: mildew of cucumber (Sphaerotheca fuliginea); assay: Action against mildew of cucumber (protective spray, cucumber seedlings cv. Chinesische Schlange); assay type: in vivo; conditions: individual active ingredient, 7 days
Description: as §1, §2
The expected efficacies of the mixtures of the active compounds were determined using Colby's formula [R. S. Colby, Weeds 15, 20-22 (1967)] and compared with the observed efficacies. […]
Leaves of cucumber seedlings of the cultivar “Chinesische Schlange” which had been grown in pots were, at the cotyledon stage, sprayed to run-off point with an aqueous preparation of active ingredient which had been prepared using a stock solution made of 10% active ingredient, 85% of cyclohexanone and 5% of emulsifier. […] The extent of the mildew development was then determined visually in % infection of the cotyledon surface. […]

## dinocap [dinocap (II)]
[1]; 6 ppm in the spray liquor
  Efficacy in % of the untreated control: 10%
[1]; 12.5 ppm in the spray liquor
  Efficacy in % of the untreated control: 10%
[1]; 50 ppm in the spray liquor
  Efficacy in % of the untreated control: 70%
[2]; 6 ppm in the spray liquor
  Efficacy in % of the untreated control: 10%
[2]; 12.5 ppm in the spray liquor
  Efficacy in % of the untreated control: 20%
